Where two headings read alike, the source gives them in different places.
Columns and labels:
FtsZSa = target: T1, FtsZSa (Staphylococcus aureus, UniProt P0A031); experiment: FtsZSa polymerization, sedimentation assay; details: sedimentation assay, 100 μM
T1 sequence (P0A031 1-390): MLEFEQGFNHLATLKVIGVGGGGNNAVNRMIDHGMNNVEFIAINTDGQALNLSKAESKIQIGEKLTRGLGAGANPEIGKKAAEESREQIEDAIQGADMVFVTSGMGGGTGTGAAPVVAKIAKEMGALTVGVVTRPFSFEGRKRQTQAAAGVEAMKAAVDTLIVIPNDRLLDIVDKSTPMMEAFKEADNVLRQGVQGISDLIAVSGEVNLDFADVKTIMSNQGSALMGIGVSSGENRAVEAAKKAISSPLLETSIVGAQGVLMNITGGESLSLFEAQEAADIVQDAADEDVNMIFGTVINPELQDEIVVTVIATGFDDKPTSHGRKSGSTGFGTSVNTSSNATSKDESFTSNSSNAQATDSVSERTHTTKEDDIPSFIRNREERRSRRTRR

[1] = tested on: S. aureus ATCC25923 biofilms; experiment: Biofilm eradication assay (CFU counting, CLSM); format: cell-based
K. pneumoniae ATCC13883 = experiment: MIC / checkerboard with PaβN; format: cell-based
S. aureus ATCC25923 [2] = experiment: Time-killing curve; format: cell-based
Method: (§1) page 19: […] MIC method. […] The cultures were incubated at 37°C, and aliquots were […] Serial dilutions were spread on LB solid medium and the plates were incubated at 37°C O/N. Then, the number of colonies was determined. Killing curves were constructed by plotting the log10 CFU/ml vs. time. Bactericidal activity was defined as a reduction of 99.9% (≥3 log 10) of the total number of CFU/ml in the original inoculum (NCCLS, 1999). Bacteriostatic activity was defined as maintenance of the original inoculum concentration or a reduction of less than 99.9% (<3 log10) of the total number of CFU/ml in the original inoculum. Live cell imaging experiments […] Cells were diluted to OD of 0.02 in fresh TSB containing in the case of strain TD276 anhydrotetracycline 0.4 μM to induce the expression of mCherryFtsZ. After 1 hour of incubation at 37°C 2 μl of the culture was spotted onto an agar pad prepared with TSB and […] For time-lapse microscopy experiments, an inverted widefield microscope (Leica DMi8S) equipped with a 100× oil immersion objective (HC PL FLUOTAR 100x/1.32 OIL) was used. […] Images were recorded at 15-min intervals and up to 5 h. Bacteria were visualized in phase- contrast and fluorescence with the required parameters. […] S. aureus […] in fluorescence (with the required parameters for Hoechst and mCherry) using a 160x objective (HC PL APO S19

S. aureus ATCC25923 [3] = experiment: Single-cell time-lapse microscopy, cell area; format: cell-based; details: 2 × MIC (4 μg/mL), 5 h
Method: as §1

P. aeruginosa PAO1 = experiment: MIC / checkerboard with PaβN; format: cell-based
[4] = target: T2, S. aureus FtsZ protein (FtsZSa) (Staphylococcus aureus, UniProt P0A031); experiment: In vitro FtsZ GTPase activity (PK/LDH coupled assay); format: biochemical; parameters: Residual GTPase activity: concentration or dose not given beside the values
T2 construct: made in house; host or cells: Escherichia coli BL21DE3
T2 sequence (P0A031 1-390): T1 sequence (P0A031 1-390)
Method: In vitro FtsZ GTPase activity
FtsZSa and FtsZPa were expressed and purified as previously described.13,14 GTPase activity was assayed at 30°C using a pyruvate kinase–L-lactic dehydrogenase (PK/LDH) spectrophotometric coupled assay, as previously described15 with minor modification. The reaction mixture was first set up to contain 50 mM MES […]
phosphoenolpyruvate, and 4.8 μM of FtsZ. The assay was initiated by the addition of 1 mM GTP. The experiments were performed in triplicate. The inhibitory concentration that reduced the enzymatic activity by half (IC50) was determined using Prism 10. […]

G. mellonella = experiment: Toxicity in uninfected G. mellonella larvae; format: in vivo, Galleria mellonella; details: 40 mg/kg
[5] = tested on: S. aureus TD276 expressing FtsZ-mCherry; experiment: FtsZ localization by fluorescence time-lapse microscopy; format: cell-based; details: 4 μg/mL C11, time-lapse; untreated 4%
[6] = tested on: P. aeruginosa PAO1, K. pneumoniae ATCC13883, and A. baumannii ATCC19606; experiment: MIC of C11 with PAβN, Gram-negative panel as a whole; format: cell-based; details: efflux pump inhibitor PAβN present
[7] = tested on: S. aureus ATCC25923 biofilms; experiment: Biofilm inhibition assay (CFU counting, CLSM); format: cell-based
S. aureus ATCC25923 [8] = experiment: Galleria mellonella infection model
mammalian tubulin = experiment: Tubulin polymerization assay, fluorescence based; format: biochemical; details: for Vmax of tubulin polymerization: DMSO control 3.78
[9] = MTT cell viability assay on A549; details: human, A549 cells
[10] = tested on: A549 pulmonary epithelial cells; experiment: MTT cell viability assay on A549; details: A549, 25 μM, 24 h
[11] = MTT cell viability assay on CFBE41o-; details: human, CFBE41o- cells
CFBE41o- cells = experiment: MTT cell viability assay on CFBE41o-; details: CFBE41o-, 12.5 μM (4.8 μg/mL), 6 h

COc1ccc(Cc2nnc(SC3=CS(=O)(=O)c4ccccc43)o2)cc1 [C11]
Effect on FtsZSa polymers formation (FtsZSa): inhibitory effect on FtsZSa polymerization
Biofilm eradication, viable cells by CFU counting ([1]; 2 × MIC, 4 μg/mL, 24 h treatment): reduce the number of viable cells
Biofilm eradication by CLSM ([1]; increasing concentrations (4, 8, 16 μg/ml)): eradicating the majority of the attached cells
MIC (K. pneumoniae ATCC13883; K. pneumoniae ATCC13883, C11 alone): ≥ 128 µg/mL
MIC (K. pneumoniae ATCC13883; Klebsiella pneumoniae, ATCC13883, K. pneumoniae ATCC13883, + PaβN […], read-out: MIC): 8 µg/mL
MIC (K. pneumoniae ATCC13883; Klebsiella pneumoniae, ATCC13883, K. pneumoniae ATCC13883, C11 alone, read-out: MIC): ≥ 128 µg/mL
Time-kill effect (S. aureus ATCC25923 [2]; 1- or 2-fold the MIC, 24 h): Bacteriostatic effect
Time-kill effect (S. aureus ATCC25923 [2]; half of the MIC): slight regrowth
Area of the cells compared to untreated cells (S. aureus ATCC25923 [3]): significantly larger
MIC (P. aeruginosa PAO1; P. aeruginosa PAO1, C11 alone): ≥ 128 µg/mL
MIC (P. aeruginosa PAO1; Pseudomonas aeruginosa, PAO1, P. aeruginosa PAO1, + PaβN 64 µg/ml, read-out: MIC): 16 µg/mL
MIC (P. aeruginosa PAO1; Pseudomonas aeruginosa, PAO1, P. aeruginosa PAO1, + PaβN […], read-out: MIC): 1 µg/mL
MIC (P. aeruginosa PAO1; Pseudomonas aeruginosa, PAO1, P. aeruginosa PAO1, C11 alone, read-out: MIC): ≥ 128 µg/mL
Effect on FtsZSa GTPase activity [4]: did not affect the FtsZSa GTPase activity
Residual GTPase activity ([4]; S. aureus FtsZ protein): 82.2%
Toxicity for G. mellonella (survival of not infected, treated larvae) (G. mellonella): not toxic
Percentage of cells in which FtsZ was delocalized [5]: 60%
MIC values in the presence of PAβN [6]: 1 to 16 µg/mL
Biofilm formation by CLSM and COMSTAT2 ([7]; 2 μg/mL): only slightly affected biofilm formation
Biofilm formation by CFU counting ([7]; 2- or 4-fold the MIC (4–8 μg/mL)): almost completely inhibit biofilm formation
Biofilm formation by CLSM and COMSTAT2 ([7]; 4 and 8 μg/mL): almost completely abolished it
Survival rate of infected larvae (S. aureus ATCC25923 [8]; 40 mg/kg 2 h after infection, 2 days postinfection, DMSO group 46%): 77%
Survival rate of infected larvae (S. aureus ATCC25923 [8]; 40 mg/kg, after 6 days): significantly higher than the mock-treated group
Survival rate of infected larvae (S. aureus ATCC25923 [8]; 40 mg/kg, three days postinfection, DMSO group 32%): 58%
Vmax of tubulin polymerization (mammalian tubulin; 5 μM): 3.5 mOD/min
Vmax of tubulin polymerization (mammalian tubulin; 10 μM): 3 mOD/min
Decrease of tubulin polymerization (mammalian tubulin; 25 μM (9.6 μg/mL), highest tested concentration): 20%
Vmax of tubulin polymerization (mammalian tubulin; 25 μM): 2.8 mOD/min
viability at 6 h, 25 µM [9]: > 90%
Percentage of live cells (MTT) [10]: higher than 70%
viability at 6 h, 25 µM [11]: 65%
viability at 24 h, 25 µM [11]: 25%
Percentage of live cells (MTT) (CFBE41o- cells): higher than 90%
